# Source: paper PMC2228615 (The Journal of General Physiology, 1980)
# Read-outs that look alike come from different tables or passages of the source.
# Legend:
# Na+,K+-dependent ATPase = format: binding, turkey; conditions: 150 mM Na+; for t1/2, observed half-time for disappearance of empty binding sites: 0.11-[…] K+, 37 C (Table I)
# human erythrocytes = conditions: similar conditions, estimated; cited from earlier work
# ox-brain Na+,K+-ATPase = conditions: cited from earlier work
SMILES,"activation energy for association (Arrhenius plot of k1) (Na+,K+-dependent ATPase; 5-37 C) [kcal/mol]","activation energy for dissociation (Arrhenius plot of k-1) (Na+,K+-dependent ATPase; 5-37 C) [kcal/mol]","time to attain equilibrium between free and bound radioligand (Na+,K+-dependent ATPase; 20 C or higher, 0.5 mM K+, 0.85 uM [3H]ouabain (Fig. 1)) [min]","k-1, dissociation rate constant (Na+,K+-dependent ATPase; 37 C, 0.5 mM K+, after 1 mM nonradioactive ouabain (Fig. 2)) [min⁻¹]","t1/2, observed half-time for disappearance of empty binding sites (Na+,K+-dependent ATPase; [3H]ouabain 1.7x10-7 M) [min]","t1/2, observed half-time for disappearance of empty binding sites (Na+,K+-dependent ATPase; [3H]ouabain 3.2x10-7 M) [min]","t1/2, observed half-time for disappearance of empty binding sites (Na+,K+-dependent ATPase; [3H]ouabain 8.1x10-7 M) [min]","t1/2, observed half-time for disappearance of empty binding sites (Na+,K+-dependent ATPase; [3H]ouabain 8.1x10-8 M) [min]","k-1, dissociation rate constant (human erythrocytes)","activation energy for association (k1) (ox-brain Na+,K+-ATPase; Na+,K+-ATPase from ox-brain cortex microsomes) [kcal/mol]","Kd (ox-brain Na+,K+-ATPase; read-out: D, dissociation constant for the potassium ion-ATPase complex, partially purified ox-brain ATPase, 150 mM Na+) [µM]"
C[C@@H]1O[C@@H](O[C@H]2C[C@@H](O)[C@]3(CO)[C@H]4[C@H](O)C[C@]5(C)[C@@H](C6=CC(=O)OC6)CC[C@]5(O)[C@@H]4CC[C@]3(O)C2)[C@H](O)[C@H](O)[C@H]1O [ouabain],29.5,24.2,≤ 15,0.16,2.2,1.2,0.49,5.1,~ 0.001 min-1,21 to 23,
[K+] [potassium ion],,,,,,,,,,,2200
